# Structures can show the parent of a compound that is named as a salt.
# System: NRG1-ERBB4 signaling
# Experiment: Nrg1-ERBB4-PIK3R1 split TEV co-culture compound screen of the NIH Clinical Collection
# Format: cell-based, human
# Settings: not given
# Description: For our HTS‐compatible split TEV assay approach, human full‐length ERBB4‐Cyt1 was fused to the NTEV fragment, a TEV protease cleavage site (tevS) and the artificial co‐transcriptional activator Gal4‐VP16 (ERBB4‐NTEV‐tevS‐GV); human PIK3R1 was fused to the CTEV fragment (PIK3R1‐CTEV) (Fig 1A). Upon ERBB4 activation, PIK3R1 is recruited to the receptor resulting in a reconstituted protease activity that cleaves off GV. In turn, released GV translocates to the nucleus and binds to upstream activating sequences (UAS) to activate the transcription of a firefly luciferase reporter gene (Fig 1A). A constitutively expressed Renilla luciferase driven under the control of the human thymidine kinase (TK) promoter was used as control to address off‐target effects related to toxicity.
# For small molecule screening, the NIH‐NCC Clinical Collection library (sets NCC‐003 and NCC‐201) was used containing 727 small molecules that are FDA‐approved and have a history in clinical applications (www.nihclinicalcollection.com). A Hamilton Labstar robot connected to 37 and 4°C incubators for cell incubation and compound storage and application (Cytomat automated incubator, ThermoScientific) and to a luciferase reader (Berthold Technologies) was used to automatically perform the screening. […] Each batch was screened three times.
# For one 96‐well plate, 4 × 10^6 PC12 cells were harvested and diluted in 5 ml assay medium (phenol red‐free DMEM (low glucose, Life Technologies), 10% FCS, 5% HS, no antibiotics). The split TEV assay plasmids (2 μg pcDNA3_ERBB4‐NTEV‐tevS‐GV‐2xHA, 2 μg pTag4C_PIK3R1‐CTEV‐2xHA, 2 μg p5xUAS_firefly luciferase, 2 μg pTK_Renilla luciferase, and 0.5 μg pECFP‐C1 for examining transfection efficiency) were diluted in 2.5 ml Opti‐MEM (Life Technologies) and vortexed. In parallel, 20 μl of the transfection reagent Lipofectamine 2000 was diluted in 2.5 ml Opti‐MEM and vortexed.
# For plating of one 96‐well plate, 10 ml suspension, containing the 4 × 10^6 in solution‐transfected cells, was placed in the bubble paddle reservoir of the Hamilton Cellstar robot. 100 μl was seeded per 96‐well using the 96‐tip pipetting head. The homogeneity of the cell suspension was guaranteed over time by mild stirring using the paddling device inside the reservoir. For five plates each, 50 ml of additional cell suspension was used to allow for losses of inaccessible volume.
# The cells were allowed to express the plasmids for 24 h before compounds were added. Proper expression and transfection efficiency were verified by ECFP expression on a clear control plate. The compounds were applied in a final concentration of 10 μM using DMSO as diluent. […] Thirty minutes later, 10,000 Nrg1‐expressing PC12 cells in 100 μl assay medium were seeded on top. 24 h after addition of the compounds, the cells were lysed using 40 μl Passive Lysis buffer (Promega) and subjected to a Dual Luciferase Assay (Promega) according to the manufacturer's instructions. The data were analyzed in R Bioconductor using the package cellHTS2 (http://www.bioconductor.org/packages/devel/bioc/html/cellHTS2.html), assessed using the z‐score, and visualized using the program Mondrian (http://stats.math.uni-augsburg.de/mondrian/).
row,SMILES,Z-SCORE
1,CNCC[C@H](Oc1cccc2ccccc12)c1cccs1 [Duloxetine],-0.82

# Same assay, conditions: NIH Clinical Collection NCC-003 raw data; compounds ranked by Z-score; 'flagged' given instead of a Z-score
row,SMILES,Z-SCORE
1,CC(C)[C@]12O[C@H]1[C@@H]1O[C@]13[C@]1(O[C@H]1C[C@H]1C4=C(CC[C@@]13C)C(=O)OC4)[C@@H]2O [TRIPTOLIDE],flagged
2,CC(C)(O)c1ccccc1CC[C@@H](SCC1(CC(=O)[O-])CC1)c1cccc(/C=C/c2ccc3ccc(Cl)cc3n2)c1.[Na+] [MONTELUKAST Na],-1.21
3,OC[C@H]1O[C@@H](n2cnc3c(NC4CCCC4)nc(Cl)nc32)[C@H](O)[C@@H]1O [CCPA],-1.19
4,Nc1ccn([C@@H]2O[C@H](CO)[C@@H](O)[C@@H]2O)c(=O)n1,-1.99
5,Br.COc1ccc2c(c1)[C@@]13CCCC[C@H]1[C@@H](C2)N(C)CC3,-1.1

# Same assay, conditions: compound screen of the NIH Clinical Collection, sheet raw data NCC-003; compounds ranked by Z-score
row,SMILES,Z-SCORE
1,CS(=O)(=O)c1ccc(C2=C(c3ccccc3)C(=O)OC2)cc1 [ROFECOXIB],0.81
2,CCc1nn(CCCN2CCN(c3cccc(Cl)c3)CC2)c(=O)n1CCOc1ccccc1 [Nefazodone],-0.63
3,NCCc1ccccn1 [2-(2-AMINOETHYL)PYRIDINE],2.15
4,NC(=NCc1ccc(Cl)cc1)SCCCc1cnc[nH]1 [Clobenpropit],-0.9
5,CC(=O)Nc1ccc(CC(=O)O)cc1 [ACTARIT],-0.12
6,FC(F)(F)c1cccc(N2CCNCC2)c1 [TFMPP],1.34
7,CN1CC[C@]2(c3cccc(O)c3)Cc3nc4ccccc4cc3C[C@H]2C1 [SB 205607],0.19
8,NC1CCN(c2nc3c(cc2F)c(=O)c(C(=O)O)cn3-c2ccc(F)cc2F)C1 (stereo not shown) [TOSUFLOXACIN TOSYLATE],0.08
9,CC(=O)O[C@H]1C[C@@H]2CC[C@@H]3[C@H](CC[C@@]4(C)[C@H]3C[C@H]([N+]3(C)CCCCC3)[C@@H]4OC(C)=O)[C@@]2(C)C[C@@H]1[N+]1(C)CCCCC1 [Pancuronium],-0.32
10,CC(=O)O[C@H]1C[C@@H]2CC[C@@H]3[C@H](CC[C@@]4(C)[C@H]3C[C@H]([N+]3(C)CCCCC3)[C@@H]4OC(C)=O)[C@@]2(C)C[C@@H]1N1CCCCC1 [VECURONIUM BROMIDE],0.97
11,CC(C)(C)NC(=O)[C@@H]1C[C@@H]2CCCC[C@@H]2CN1C[C@@H](O)[C@H](Cc1ccccc1)NC(=O)[C@H](CC(N)=O)NC(=O)c1ccc2ccccc2n1 [SAQUINAVIR MESYLATE],-0.84
12,CNS(=O)(=O)Cc1ccc2[nH]cc(CCN(C)C)c2c1 [SUMATRIPTAN SUCCINATE],-0.07
13,CCN(C(C)=O)c1cccc(-c2ccnc3c(C#N)cnn23)c1 [Zaleplon],-0.02
14,N#CCc1ccccc1 [Benzeneacetonitrile],0.03
15,CC(C)(C)C(O)/C=C/c1ccc2c(c1)OCO2 (stereo not shown) [Stiripentol],-0.21
16,CCN(CC)C(=O)C1(c2ccccc2)CC1CN (stereo not shown) [Milnacipran],0.97

row,SMILES,Z-SCORE
1,CCOC(=O)C1(CCCCCCOc2ccc(Cl)cc2)CO1 (stereo not shown),0.96
2,COC(=O)CCc1ccc(OCC(O)CNC(C)C)cc1 (stereo not shown) [ESMOLOL HYDROCHLORIDE],0.38
3,C[C@]12C=CC(=O)C=C1CC[C@@H]1[C@@H]2[C@@H](O)C[C@@]2(C)[C@H]1CC[C@]2(O)C(=O)COC(=O)CCC(=O)[O-].[Na+],0.67
4,O=c1ncc(F)c[nH]1 [5-fluoro-2-pyrimidone],-0.03
5,CCOC(=O)c1ccc(OC(=O)CCCCCN=C(N)N)cc1.CS(=O)(=O)O [Gabexate mesylate],-0.47
6,CCCCc1nc(Cl)c(CO)n1Cc1ccc(-c2ccccc2-c2nn[nH]n2)cc1 [LOSARTAN Potassium],-0.12
7,CN(C)CCC[C@@]1(c2ccc(F)cc2)OCc2cc(C#N)ccc21 [ESCITALOPRAM OXALATE],-0.11
8,Cc1onc(-c2ccccc2)c1-c1ccc(S(N)(=O)=O)cc1 [VALDECOXIB],0.19
9,O=C1CN2Cc3c(ccc(Cl)c3Cl)N=C2N1 [ANAGRELIDE HCl],-0.48
10,Cc1occc(=O)c1O [118-71-8],0.13
11,O=C1N[C@H](C(=O)O)CS1,0.84
12,CCN(CC)CC1CCCCN1CC(=O)N1c2ccccc2C(=O)Nc2cccnc21 (stereo not shown),1
13,CO[C@H]1O[C@@H]2O[C@@]3(C)CC[C@H]4[C@H](C)CC[C@@H]([C@H]1C)[C@@]24OO3,-1.01
14,CC(=O)NCCCCCCNC(C)=O,1.08
15,OCCN1C[C@H](O)[C@@H](O)[C@H](O)[C@H]1CO [MIGLITOL],-0.33

# Same assay, conditions: compounds at 10 μM, 24 h; PC12 split TEV assay cells co-cultured with Nrg1-expressing PC12 cells; analysed with cellHTS2
row,SMILES,Z-SCORE
1,"NS(=O)(=O)c1cc(C(=O)O)c(NCc2ccco2)cc1Cl [FUROSEMIDE, reference compound]",0.8
2,"C[C@H]1c2cccc(O)c2C(=O)C2=C(O)[C@]3(O)C(=O)C(C(N)=O)=C(O)[C@@H](N(C)C)[C@@H]3[C@@H](O)[C@@H]21 [DOXYCYCLINE, reference compound]",-0.93
3,"Cl.NCC(O)c1ccc(O)c(O)c1 (racemic) [(+/-)-NOREPINEPHRINE HYDROCHLORIDE, reference compound]",1.11
4,"Cc1cccc(Nc2ccccc2C(=O)O)c1C [Mefenamic Acid, reference compound]",0.34
5,"CC(C)NCC(O)COc1ccc(CC(N)=O)cc1 (stereo not shown) [ATENOLOL, reference compound]",0.6
6,"Cc1ccc(-c2cc(C(F)(F)F)nn2-c2ccc(S(N)(=O)=O)cc2)cc1 [Celecoxib, reference compound]",-0.36
7,"CC[C@H]1OC(=O)[C@H](C)[C@@H](O[C@H]2C[C@@](C)(OC)[C@@H](O)[C@H](C)O2)[C@H](C)[C@@H](O[C@@H]2O[C@H](C)C[C@H](N(C)C)[C@H]2O)[C@](C)(O)C[C@@H](C)CN(C)[C@H](C)[C@@H](O)[C@]1(C)O [Azithromycin, reference compound]",0.06
8,"CCOC(=O)CCC(=O)O[C@H]1[C@H](O[C@@H]2[C@@H](C)[C@H](O[C@H]3C[C@@](C)(OC)[C@@H](O)[C@H](C)O3)[C@@H](C)C(=O)O[C@H](CC)[C@@](C)(O)[C@H](O)[C@@H](C)C(=O)[C@H](C)C[C@@]2(C)O)O[C@H](C)C[C@@H]1N(C)C [Eryped, reference compound]",-0.38
9,"CN1CCN(CC/C=C2/c3ccccc3Sc3ccc(S(=O)(=O)N(C)C)cc32)CC1 [THIOTHIXENE, reference compound]",1.3
10,"CNC(=C[N+](=O)[O-])NCCSCc1ccc(CN(C)C)o1 [Ranitidine hydrochloride, reference compound]",-0.51
11,"O=C1CC2(CCCC2)CC(=O)N1CCCCN1CCN(c2ncccn2)CC1 [Buspar, reference compound]",-0.01
12,"O=c1[nH]c(=O)n([C@H]2C[C@H](O)[C@@H](CO)O2)cc1F [Floxuridine, reference compound]",-0.39
13,"CC(=O)OCC(=O)[C@@]12OC3(CCCC3)O[C@@H]1C[C@H]1[C@@H]3CCC4=CC(=O)C=C[C@]4(C)[C@@]3(F)[C@@H](O)C[C@@]12C [AMCINONIDE, reference compound]",-1.01
14,"CCC(C)(C)C(=O)O[C@H]1C[C@@H](C)C=C2C=C[C@H](C)[C@H](CC[C@@H]3C[C@@H](O)CC(=O)O3)[C@H]21 [Simvastatin, reference compound]",flagged
15,"C/C(=C\C(=O)OCCCCCCCCC(=O)O)C[C@@H]1OC[C@H](C[C@@H]2O[C@H]2[C@@H](C)[C@H](C)O)[C@@H](O)[C@H]1O [Mupirocin, reference compound]",0.71

# Source: article PMC5653977 (EMBO Molecular Medicine, 2017)
